Test results from publication PMC12741294, “Phenazine 5,10-dioxide analogues as potential therapeutics in AML: Efficacy on patient-derived blasts, in zebrafish larvae xenografts and synergy with venetoclax” (Translational Oncology, 2025).
Where two headings read alike, the source gives them in different places.

Assays:
AML patient blasts = assay: Cell death of patient-derived AML blasts, Annexin V/propidium iodide flow cytometry, 24 h; type: cell-based, human; settings: compared with Cpd 3, 6, 9
Source text: Blasts from 61 non-selected patients were used in this study. Supplementary Table 1 presents the patient information, classification, and genetic aberration of the blasts. Peripheral blood mononuclear cells (PBMC) from healthy volunteers were obtained from freshly drawn peripheral blood from the Department of Immunology and Transfusion Medicine, Haukeland University Hospital, Bergen, Norway. AML blasts and PBMCs were isolated by density gradient separation of peripheral blood. The patient samples contained at least 95 % leukemic blasts after isolation. Bone marrow (BM) aspirate from a healthy donor was kindly provided by Professor BT Gjertsen, Dept. Clinical Science, University of Bergen (REK Vest 2012/2247). The patient blasts were cultured in StemSpan medium supplemented with SCF, Flt-3 ligand, and G-CSF, each at a final concentration of 20 ng/mL [22, 23], treated with phenazine 5,10-dioxides or daunorubicin (DNR) for 24 h before cell death was assessed by flow-cytometric analyses as described previously. Viable cells were defined as Annexin V/propidium iodide double negative cells.

zebrafish larvae [1] = assay: Toxicity in zebrafish larvae (viability, MTD, morphology); type: in vivo; settings: for Melanocyte abnormalities: wild-type AB-strain zebrafish larvae
Description: Phenazine 5,10-dioxides were dissolved in DMSO to give final concentrations between 5 and 20 mM and administered to the zebrafish larvae by diluting the stock solutions in the embryo medium. All compounds were tested up to a maximal concentration of 100 µM. […]
(§1) Zebrafish larvae heart rate was analysed as described by Førde et al.. To examine zebrafish larvae for morphological abnormalities, they were imaged using a Nikon Diaphot 300 inverted microscope fitted with a Nikon DS-Fi3 microscope camera and DS-L4 camera control unit.

MOLM-13 [2] = assay: WST-1 metabolic activity and Bliss synergy with VTX, MOLM-13; type: cell-based, human; settings: for Mean Bliss interaction index (synergy score): Cpd 1 + VTX, all tested combinations
Description: (§2) To study the combination effect of phenazine 5,10-dioxides and VTX in AML cell lines, the cells were seeded in 96-well plates at 35,000 cells per well for 24-hour experiments or 20,000 cells per well for 48-hour experiments. Phenazine 5,10-dioxides and VTX, alone or in combination, were added in desired concentrations and cell plates incubated for 24 and 48 h. Thereafter, WST-1 was added to each well according to the manufacturer’s instructions and incubated for two hours. Absorbance was measured at 450 nm with 620 nm reference wavelength in a Wallac EnVision® 2130 multilabel plate reader, and this value was used to calculate relative metabolic activity compared to untreated cells. The cells were next fixed in 2 % formaldehyde with 0.01 mg/ml Hoechst 33,342 dye dissolved in PBS. Nuclear morphology was studied using a Nikon Diaphot 300 microscope to confirm that metabolic activity correlated with the presence of apoptotic nuclei (Supplementary Figure 1).
(§3) To calculate drug interaction, cell metabolic activity results were plotted into the interaction calculation software SynergyFinder+ [31], and Bliss independence score was used to calculate synergy.

AML cell lines = assay: Preliminary combination of Cpd 1 with AML drugs; type: cell-based, human; settings: in combination with DNR, cytarabine and etoposide, data not shown
MOLM-13 [3] = system: MOLM-13; set-up: method as in PMID 34124675; settings: ref [6]; cited from earlier work
MOLM-13 [4] = assay: Cytotoxicity towards MOLM-13 cells (EC50); type: cell-based, human; settings: no reference mark in Table 3
Description: Table 3 Toxicity of phenazine 5,10-dioxides in zebrafish larvae. Maximum tolerated doses and observed morphological alterations in zebrafish larvae caused by phenazine 5,10-dioxides dissolved in embryo medium for 48 h. Cpd: compound. MTD: maximum tolerated dose. a: EC50 values from, –: not observed. | column: MOLM-13 EC50 (µM)

zebrafish larvae [5] = assay: Zebrafish larvae heart rate; type: in vivo; settings: intravenously injected, 4 nL injection, 100 µM; 24 and 48 h
Description: as §1

[6] = system: xenograft MOLM-13 cells in zebrafish larvae; assay: Tumour burden of xenograft MOLM-13 cells in zebrafish larvae; type: in vivo; settings: VTX 4 nL 50 µM intravenous injection; 24 h; p < 0.001
Description: Prior to transplantation into zebrafish larvae, MOLM-13 cells were stained with the fluorescent marker CellTracker™ Deep Red. The cell suspension was centrifuged at 300 relative centrifugal force (RCF) for 5 min, and the medium removed. Thereafter, the cells were resuspended in serum-free RPMI-1640 medium containing 1.5 µM CellTracker™ Deep Red and incubated for 30 min at 37 °C. Excess dye was removed by centrifugation for five minutes at 300 RCF, removal of the medium and the cells were resuspended in fresh RPMI-medium to a final concentration of 10 million cells/mL. Intravenous injection of MOLM-13 cells into zebrafish larvae was performed as described in Førde et al.. The zebrafish larvae xenografts were incubated at 31.5 °C.
For quantification of tumour burden in zebrafish larvae a Nikon Ti-E inverted microscope fitted with an Andor Dragonfly 505 spinning disk confocal unit and iXon 888 Life EMCCD camera setup was used. […] The zebrafish larvae were scored based on the number of cells successfully injected and divided into treatment or control groups. […]
The Fiji macro described in [30] was used to determine MOLM-13 cancer cell burden in zebrafish larvae. […] After defining the boundary of the larva and segmentation from the background, the cells are segmented so that individual cells can be quantified (both size and number). […]

OCI-AML3 = assay: WST-1 metabolic activity and Bliss synergy with VTX, OCI-AML3; type: cell-based, human; settings: VTX alone; 24 h
Description: as §2, §3

[7] = ref [29]; cited from earlier work
[8] = set-up: method as in PMID 38778732; settings: patients receiving 400 mg VTX as a single dosage; ref [43]; cited from earlier work
AML patients = system: AML patients; set-up: method as in PMID 32786187; settings: ref [14]; cited from earlier work
[9] = dissolved in embryo medium for 48 h
[10] = dissolved in embryo medium for 48 h, concentration from which observed

With `[O-][n+]1c2cccc(O)c2[n+]([O-])c2cccc(O)c21` [Cpd 1, 1,6-dihydroxyphenazine 5,10-dioxide] as the compound, how does the “Potency towards the patient blasts” value (AML patient blasts) read?
The value was “lowest potency”.

And the “Lethality to zebrafish larvae” value (zebrafish larvae [1]; 100 µM (highest concentration tested), 48 h)?
Its value is “not lethal”.

And the “Viability of zebrafish larvae (Fig. 2A annotation)” value (zebrafish larvae [1]; 48 h of exposure, up to 100 µM)?
The value was “Non-toxic”.

What about the “MTD (maximum tolerated dose)” value (zebrafish larvae [1]; [9]) of the same compound?
Its value is >100 µM.

What about the Melanocyte abnormalities (zebrafish larvae [1]) of the same compound?
The Melanocyte abnormalities was “not observed”.

And the “Mean Bliss interaction index (synergy score)” value (MOLM-13 [2]; 24 h)?
The value was 15.56.

What about the “Mean Bliss interaction index (synergy score)” value (MOLM-13 [2]; 48 h) of the same compound?
The value was 10.90.

And the Drug interaction (AML cell lines)?
Its Drug interaction is “additive effects”.

And the EC50 (MOLM-13 [3])?
Its EC50 is 2 ± 0.1 µM.

Which results are given for `COc1cccc2c1[n+]([O-])c1cccc(O)c1[n+]2[O-]` [Cpd 2, Myxin]?
Only concentration that did not cause lethality (zebrafish larvae [1]; 48 h exposure): 5 µM; MTD (maximum tolerated dose) (zebrafish larvae [1]; [9]): 5 µM; Pigmentation alterations (zebrafish larvae [1]; [10]): From 10 µM; Concentration killing zebrafish larvae after six hours (zebrafish larvae [1]; in embryo medium, data not shown): 30000 nM; Melanocyte abnormalities (zebrafish larvae [1]): caused melanocyte abnormalities; EC50 (MOLM-13 [3]): 1.4 ± 0.3 µM

Which EC50 (MOLM-13 [4]) does the source give for `COc1cccc2c1[n+]([O-])c1ccccc1[n+]2[O-]` [Cpd 10] here?
Its EC50 is 1.4 ± 0.1 µM.

What about the “MTD (maximum tolerated dose)” value (zebrafish larvae [1]; [9]) of the same compound?
The value was <10 µM.

What about the Muscle fibre alterations (zebrafish larvae [1]; [10]) of the same compound?
The Muscle fibre alterations was “From 10 µM”.

What about the Pigmentation alterations (zebrafish larvae [1]; [10]) of the same compound?
The Pigmentation alterations was “From 10 µM”.

What about the Melanocyte abnormalities (zebrafish larvae [1]) of the same compound?
Its Melanocyte abnormalities is “caused melanocyte abnormalities”.

Which “Heartrate of zebrafish larvae relative to control” value (zebrafish larvae [5]) does the source give for `CC1(C)CCC(CN2CCN(c3ccc(C(=O)NS(=O)(=O)c4ccc(NCC5CCOCC5)c([N+](=O)[O-])c4)c(Oc4cnc5[nH]ccc5c4)c3)CC2)=C(c2ccc(Cl)cc2)C1` [VTX, venetoclax] here?
Its value is “No significant differences”.

And the “Cancer cell burden relative to control” value [6]?
Its value is “reduced cancer cell burden”.

And the Relative metabolic activity (MOLM-13 [2]; 6 nM VTX alone, 48 h)?
Its Relative metabolic activity is 59%.

What about the “Concentration until which no reduction in metabolic activity” value (OCI-AML3) of the same compound?
The value was 6 µM.

And the “Sensitivity of OCI-AML3 cells” value (OCI-AML3)?
The value was “high resistance”.

And the Permeability [7]?
The Permeability was “low permeability”.

What about the Cmax [8] of the same compound?
The Cmax was ~2500 nM.

With `Nc1ncn([C@@H]2O[C@H](CO)[C@@H](O)[C@H]2O)c(=O)n1` [azacitidine] as the compound, how does the Median overall survival (AML patients) read?
Its Median overall survival is 9.6 months.
